# Laboratory results from ChEMBL document CHEMBL1201862, “PubChem BioAssay data set” (2004).
#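 96-well plates; 48 h exposure; 5 concentrations. Endpoints by linear interpolation between flanking doses. Not reached: highest tested concentration assigned. The concentration for 50% growth inhibition is given as GI50.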 Activity calls are given as the source filed them. No stated cut-off is given here; in the data, active = GI50 up to about 1.1 µM and inactive = higher.
# What was measured:
# Experiment in all cases: growth of human tumour cells (NCI), 48 h
# [1] = test system: 786-0
# [2] = test system: UACC-62
# [3] = test system: NCI-H23
# [4] = test system: MOLT-4
# [5] = test system: OVCAR-3
# [6] = test system: OVCAR-8
# [7] = test system: KM12
# [8] = test system: SK-MEL-5
# [9] = test system: SW-620
# [10] = test system: SF-295
# [11] = test system: SN12C
# [12] = test system: CAKI-1
# [13] = test system: SK-MEL-28
# [14] = test system: HCT-116
# [15] = test system: K562
# [16] = test system: M14
# [17] = test system: PC-3
# [18] = test system: NCI-H226
# [19] = test system: SNB-75
# [20] = test system: A498
Structure (SMILES),GI50 [1],GI50 [2],GI50 [3],GI50 [4],GI50 [5],GI50 [6],GI50 [7],GI50 [8],GI50 [9],GI50 [10],GI50 [11],GI50 [12],GI50 [13],GI50 [14],GI50 [15],GI50 [16],GI50 [17],GI50 [18],GI50 [19],GI50 [20]
O=C1c2ccccc2C(=O)N1CCc1ncc[nH]1,> 100 µM (inactive),> 100 µM (inactive),> 100 µM (inactive),> 100 µM (inactive),> 100 µM (inactive),> 100 µM (inactive),> 100 µM (inactive),> 100 µM (inactive),> 100 µM (inactive),> 100 µM (inactive),> 100 µM (inactive),> 100 µM (inactive),> 100 µM (inactive),> 100 µM (inactive),> 100 µM (inactive),> 100 µM (inactive),> 100 µM (inactive),–,–,–
CCN(CC)CC(C)C(=O)/C=C/c1ccc(C)cc1 (centres undefined),1.88 µM (inactive),3.3 µM (inactive),6.31 µM (inactive),2.52 µM (inactive),4.2 µM (inactive),2.07 µM (inactive),0.502 µM (active),5.02 µM (inactive),1.57 µM (inactive),15 µM (inactive),1.63 µM (inactive),1.22 µM (inactive),1.85 µM (inactive),1.73 µM (inactive),3.24 µM (inactive),2.2 µM (inactive),–,16.6 µM (inactive),1.66 µM (inactive),4.74 µM (inactive)
CCc1cccc(C)c1NC(=O)CCc1nnc2s/c(=C\c3cccc4ccccc34)c(=O)n12,> 100 µM (inactive),> 100 µM (inactive),> 100 µM (inactive),17.9 µM (inactive),78 µM (inactive),> 100 µM (inactive),92.7 µM (inactive),> 100 µM (inactive),> 100 µM (inactive),71.1 µM (inactive),> 100 µM (inactive),> 100 µM (inactive),> 100 µM (inactive),57.1 µM (inactive),30.3 µM (inactive),45.6 µM (inactive),–,> 100 µM (inactive),> 100 µM (inactive),> 100 µM (inactive)
COc1ccc2ccc([Se]c3ccc4ccc(OC)cc4c3)cc2c1,49.7 µM (inactive),> 100 µM (inactive),> 100 µM (inactive),63.2 µM (inactive),> 100 µM (inactive),21.8 µM (inactive),51.9 µM (inactive),> 100 µM (inactive),> 100 µM (inactive),74.6 µM (inactive),90.6 µM (inactive),38.7 µM (inactive),> 100 µM (inactive),58.1 µM (inactive),> 100 µM (inactive),> 100 µM (inactive),–,63.1 µM (inactive),26.6 µM (inactive),> 100 µM (inactive)
CC(=O)Oc1c(C)n(CCCl)ccc1=O,> 100 µM (inactive),> 100 µM (inactive),–,> 100 µM (inactive),> 100 µM (inactive),> 100 µM (inactive),> 100 µM (inactive),> 100 µM (inactive),–,> 100 µM (inactive),> 100 µM (inactive),> 100 µM (inactive),> 100 µM (inactive),> 100 µM (inactive),> 100 µM (inactive),> 100 µM (inactive),–,> 100 µM (inactive),> 100 µM (inactive),> 100 µM (inactive)
CC(=O)O[C@@H]1CC2[C@@H](CCC3Cc4nc5c(nc4C[C@@]32C)CC2CC[C@@H]3C(CC[C@@]4(C)C3CC[C@@H]4C(C)CCCC(C)C)[C@@]2(C)C5)C2C[C@@H]3OC4(CCC(C)CO4)C(C)[C@@H]3[C@]21C (some centres undefined),53.7 µM (inactive),2.01 µM (inactive),> 100 µM (inactive),> 100 µM (inactive),> 100 µM (inactive),> 100 µM (inactive),> 100 µM (inactive),> 100 µM (inactive),> 100 µM (inactive),53.8 µM (inactive),> 100 µM (inactive),–,> 100 µM (inactive),> 100 µM (inactive),> 100 µM (inactive),> 100 µM (inactive),> 100 µM (inactive),23.4 µM (inactive),2.74 µM (inactive),–
